Like-named read-outs stand apart in the source and are kept apart here.
Legend:
diamondback moth = assay: Insecticidal test on diamondback moth; type: in vivo; conditions: Plutella xylostella, 144 h
Outline: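 Cabbage leaves were dipped in a wettable-powder dilution at 500 ppm active ingredient, air-dried and given 10 second-instar larvae per cup. Mortality was counted after 6 days at 25 °C, in a single series.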

cotton bollworm = assay: Insecticidal test on cotton bollworm; type: in vivo; conditions: Helicoverpa armigera, 144 h
Protocol: A wettable powder prepared in accordance with Formulation Example 2 was diluted with water to a concentration of an active ingredient of 500 ppm. Cabbage leaves were dipped in this solution and dried in air and then put in a plastic cup having a capacity of 60 mL. Five hatched larvae of cotton bollworm were released in the cup, and the cup was lidded and placed in a thermostatic chamber at 25° C. for 6 days, and the number of dead larvae were assessed for calculation of the mortality by Equation 2. The test was carried out by two series system.

two-spotted spider mites = assay: Miticidal test on two-spotted spider mites (seedling dip); type: in vivo, Tetranvchus urticae; conditions: Glycine max, 312 h, read-out: protective value
Outline: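 Soybean seedlings carrying adult mites were dipped in wettable-powder dilution at 500 ppm active ingredient, air-dried, and held at 25° C for 13 days. Live mites were counted and a protective value calculated.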

[1] = tested on: southern root-knot nematodes; assay: Nematicidal test on root-knot nematode; type: in vivo; conditions: Meloidogyne incognita, 120 h
Protocol: A compound to be tested was dissolved in N,N-dimethylformamide containing 1 mass % of tween 20, and this solution was diluted with distilled water to a concentration of an active ingredient of 20 ppm. 0.5 mL of the solution was mixed with 0.5 mL of a suspension containing about 30 second-instar larvaes of southern root-knot nematodes, and the mixture was placed in a thermostatic chamber at 25° C. for 5 days. The number of dead nematodes and the number of live nematodes were assessed by a microscope for calculation of the mortality by Equation 3. The test was carried out by two series system.

cotton aphid [2] = assay: Insecticidal test on cotton aphid (seedling dip); type: in vivo; conditions: Aphis gossypii, in Cucumis sativus, 72 h
Outline: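 Cucumber seedlings carrying cotton aphid larvae were dipped in a water-diluted wettable powder at 500 ppm active ingredient, then air-dried. After 3 days at 25° C. live insects were counted and mortality calculated; single series.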

cotton aphid [3] = assay: Insecticidal test on cotton aphid (root zone irrigation); type: in vivo; conditions: Aphis gossypii, in Cucumis sativus, 72 h
Protocol: A wettable powder prepared in accordance with Formulation Example 2 was diluted with water to a concentration of an active ingredient of 100 ppm. The root zone of cucumber seedlings which had been inoculated with larvae of cotton aphid was irrigated with 5 mL of the solution. The treated cucumber seedlings were placed in a thermostatic chamber at 25° C. for 3 days, and the live insects were counted for calculation of the mortality by Equation 2. The test was carried out by one series system.

brown rice planthopper = assay: Insecticidal test on brown rice planthopper; type: in vivo; conditions: 144 h
Outline: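 Rice sprouts dipped in 500 ppm active ingredient (water-diluted wettable powder), then exposed to ten third-instar brown rice planthopper larvae. Held at 25° C. for 6 days; dead larvae counted for mortality, single series.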

[4] = 500 ppm active ingredient, soybean seedlings with imago mites dipped, 25° C., 13 days

| Compound | mortality at 500 ppm (diamondback moth; 500 ppm active ingredient, cabbage leaves dipped, second-instar larvae, 25° C., 6 days, read-out: mortality) [%] | mortality at 500 ppm (cotton bollworm; 500 ppm active ingredient, cabbage leaves dipped, hatched larvae, 25° C., 6 days, read-out: mortality) [%] | pest or weed control at 500 ppm (two-spotted spider mites) [%] | mortality at 20 ppm [1] [%] | pest or weed control at 500 ppm (two-spotted spider mites; [4]) [%] | melting point [°C] | mortality at 500 ppm (cotton aphid [2]) [%] | mortality at 100 ppm (cotton aphid [3]) [%] | mortality at 500 ppm (diamondback moth; in Brassica oleracea) [%] | mortality at 500 ppm (cotton bollworm; in Brassica oleracea) [%] | mortality at 500 ppm (brown rice planthopper) [%] |
| --- | --- | --- | --- | --- | --- | --- | --- | --- | --- | --- | --- |
| CNc1cc(OC(F)(F)C(F)OC(F)(F)C(F)(F)C(F)(F)F)nn1-c1cc([S+]([O-])CC(F)(F)F)c(C)cc1F (stereo not drawn) [1-348, 1-{2-fluoro-4-methyl-5-(2,2,2-trifluoroethylsulfinyl)phenyl}-5-methylamino-3-{1,1,2-trifluoro-2-(heptafluoropropoxy)ethoxy}pyrazole] | ≥ 90 | ≥ 90 | ≥ 90 | ≥ 90 |  |  |  |  |  |  |  |
| Cc1cc(F)c(-n2cc(C#N)c(OC(F)(F)C(F)OC(F)(F)F)n2)cc1SCC(F)(F)F (stereo not drawn) [1-1587, 4-cyano-1-{2-fluoro-4-methyl-5-(2,2,2-trifluoroethylthio)phenyl}-3-{1,1,2-trifluoro-2-(trifluoromethoxy)ethoxy}pyrazole] |  |  |  |  | ≥ 90 | 57 to 58 |  |  |  |  |  |
| CC(=O)Nc1cc(OCC(F)(F)C(F)(F)F)nn1-c1cc([S+]([O-])CC(F)(F)F)c(C)cc1F (stereo not drawn) [1-18, 5-acetylamino-1-{2-fluoro-4-methyl-5-(2,2,2-trifluoroethylsulfinyl)phenyl}-3-(2,2,3,3,3-pentafluoropropoxy)pyrazole] |  |  |  |  | ≥ 90 |  | ≥ 90 | ≥ 90 | ≥ 90 | ≥ 90 | ≥ 90 |
| C#CCNc1cc(OCC(F)(F)C(F)(F)F)nn1-c1cc([S+]([O-])CC(F)(F)F)c(C)cc1F (stereo not drawn) [1-162, 1-{2-fluoro-4-methyl-5-(2,2,2-trifluoroethylsulfinyl)phenyl}-3-(2,2,3,3,3-pentafluoropropoxy)-5-(2-propynylamino)pyrazole] |  |  |  | ≥ 90 | ≥ 90 |  | ≥ 90 |  | ≥ 90 | ≥ 90 |  |
| Cc1cc(F)c(-n2nc(OCC(F)(F)C(F)(F)F)cc2C)cc1[S+]([O-])CC(F)(F)F (stereo not drawn) [1-92, 1-{2-fluoro-4-methyl-5-(2,2,2-trifluoroethylsulfinyl)phenyl}-5-methyl-3-(2,2,3,3,3-pentafluoropropoxy)pyrazole] |  |  |  | ≥ 90 | ≥ 90 |  | ≥ 90 |  |  |  | ≥ 90 |
